Source: patent US20080207521A1, “PEPTIDE LIGAND TO IMPAIR CANCER CELL MIGRATION” (priority 2005, published 2008)

Key:
Assay type in all cases: cell-based, human
[1] = tested on: Wnt-5a antisense HB2 cells; assay: Adhesion of Wnt-5a antisense HB2 cells to collagen I (MTS); settings: for adhesion to collagen I, concentration-dependent analysis: 95% pure peptides, different concentrations
Protocol: (§1) The adhesion assay was carried out as previously described (12). Briefly, cells were serum-depleted for 16 h, detached with Versene and allowed to adhere as single cells to collagen I for 60 (MDA-MB-468) or 90 min (HB2) at 37° C. Non-adherent cells were removed by washing with PBS. The adherent cells were incubated with a (3-(4,5-dimethylthiazol-2-yl)-5-(3-carboxymethoxyphenyl)-2-(-4-sulfophenyl)-2H-tetrazolium, inner salt (MTS) dye reduction assay (Promega, Madison, Wis.) and absorbance was measured at 490 nm using a Fluostar microplate reader from BMG LabTechnologies (GmbH, Offenberg, Germany). In each experiment a single value was calculated based on the mean of adhesion from six separate wells after the adhesion to plastic alone had been subtracted. The CM used as a control in the adhesion assays was obtained from confluent Wnt-5a overexpressing HB2 cells (for experiments with Wnt-5a antisense HB2 cells) or Wnt-5a overexpressing MCF-7 cells (for MDA-MB-468 cells) stably transfected with a vector over-expressing Wnt5a. A collected CM was always used within three days.
To control the specificity of the CM, it was incubated with either the Wnt-5a or a control Ab for 45 min at 37° C. Subsequently 10 μl Protein A Sepharose was added for 30 min and after the protein A-bound antibodies were collected by centrifugation the remaining supernatants were used for the experiments.
Effects of crude peptides on adhesion of Wnt-5a antisense HB2 cells to collagen. (A) Single cells were allowed to adhere for 90 min in the absence or presence of the indicated crude peptides (100 μM). The amounts of adhesive cells were analyzed as described in the methods and the results are given as means±SEM of 7 separate experiments. (B) Adhesion of Wnt-5a antisense HB2 cells to collagen was analyzed after pre-treating the cells with an anti-[…]1-integrin Ab for 45 min before letting them adhere for 90 min in the absence or presence of peptides 171 or 175 (100 μM) or CM. The amounts of adhesive cells were analyzed as described in the methods and the results are given as means±SEM of 6 separate experiments (C) The diagram outlines a control of the presently used CM. The cells were allowed to adhere to collagen I-coated wells in the absence or presence of normal CM or Wnt-5a depleted CM. The amounts of adhesive cells were analyzed as described in the methods and the results are given as means±SEM of 6 separate experiments. Ns=not significant, * p<0.05, ** p<0.01 and *** p<0.001.
Effects of the selected and pure peptides on the ability of Wnt-5a antisense HB2 cells to adhere and migrate. (A-E) The ability of the cells to adhere to collagen type I-coated wells was analyzed as previously described for FIG. 2 in the absence or presence of different concentrations of the indicated peptide. (F) Effect of the indicated peptides on migration of Wnt-5a antisense HB2 in a transwell migration assay. The cells were allowed to migrate for 18 h in the absence or presence of 100 μM peptide or 0.4 μg/ml of recombinant Wnt5a. The data are given as means±SEM of 6-7 separate experiments, each performed in triplicate. * p<0.05 and ** p<0.01.

[2] = tested on: filamentous actin (F-actin); assay: F-actin content of MDA-MB-468 cells (AlexaFluor 488 phalloidin fluorescent microscopy); settings: peptide 100 μM; 18 h; compared to untreated cells
Protocol: MDA-MB-468 cells were detached from the tissue culture dishes by incubation with Versene for 10 min at 37° C., washed, re-suspended as single cells in serum-free DMEM medium supplemented with 0.5% BSA with or without peptide 175 (100 μM), and plated on a cover glass, pre-coated with 10 µg/ml collagen-I, in a cell culture dish. These experiments were terminated after 18 h by fixing the cells with 4% paraformaldehyde for 10 min at 4° C.
The cells were then permeabilized by incubation with 0.5% Trition X-100 for 5 min and blocked by incubation with a 3% BSA solution supplemented with 0.3% Triton X-100 for 45 min. The staining of the cells was performed in the dark by incubation for 40 min with AlexaFluor® 488 phalloidin (Molecular Probes, Eugene, Oreg.) at a dilution of 1:500 and in the presence of 1% BSA. Thereafter the cells were extensively washed and finally mounted with Dako Cytomation fluorescent mounting medium. The samples were examined and photographed in a Nikon Eclipse 800 microscope using a 60× oil immersion objective.
Peptide-induced effects on MDA-MB-468 tumour cell migration and their content of F-actin. (A) The cells were allowed to migrate for 18 h in the absence or presence of the indicated peptides (100 μM) The data in panel A are expressed as means±SEM of 8 separate experiments, each performed in triplicate. * p<0.05. […]

[3] = tested on: MDA-MB-468 cells; assay: Adhesion of MDA-MB-468 breast cancer cells to collagen I (MTS); settings: pure peptide 100 μM; 60 min
Protocol: as §1
Peptide-induced effects on adhesion and DDR1 phosphorylation in MDA-MB-468 breast cancer cells. (A) Western blot analysis of Wnt-5a protein expression in Wnt-5a antisense and Wnt-5a over-expressing HB2 cells in comparison to MDA-MB-468 tumour cells. The blot is representative of 9 separate experiments. (B) Peptide-induced effects on MDA-MB-468 tumour cell adhesion. The cells were allowed to adhere to collagen type I-coated wells for 60 min in the absence or presence of 100 μM of the indicated peptides or CM. The amounts of adhesive cells were analyzed as described in the methods and the results are given as means±SEM of 8 separate experiments. (C) MDA-MB-468 cell adhesion to collagen I-coated wells in the absence or presence of peptide 175 or a peptide with same amino acid sequence except for a substitution of cysteine for alanine (175Ala) or CM. The amount of adherent cells was estimated as in panel A and expressed as means±SEM of 6 separate experiments, ns=not significant, ** p<0.01 and *** p<0.001. (D) Single MDA-MB-468 cells were allowed to adhere to collagen I-coated plates for 60 min in the absence or presence of the indicated peptides (100 μM), CM or recombinant Wnt-5a (0.8 µg/ml). DDR1 immunoprecipitates were Western blotted with first an anti-phosphotyrosine Ab and then after stripping with an anti-DDR1 Ab. The blots shown are representative of 6 separate experiments.
Effects of peptide 175 modifications on its ability to induce MDA-MB-468 tumour cell adhesion and migration. (A) The cells were allowed to adhere for 60 min to collagen-I coated wells in the absence or presence of peptide 175, three stepwise N-terminal deletion variants of peptide 175 or a formylated version of the tested hexapeptide derived from peptide 175. The amounts of adhesive cells were analyzed as described in the methods and the results are given as means±SEM of 6 separate experiments. (B and C) The cells were allowed to migrate for 18 h in the absence or presence of 1 or 10 μM of peptide 175 (B) or the formylated hexapeptide (C). The data are given as means±SEM of 6 separate experiments, each performed in triplicate. * p<0.05, p<0.01.

Sequence | adhesion to collagen I, concentration-dependent analysis [1] | adhesion to collagen after pre-treatment with blocking anti-β1-integrin Ab ([1]; anti-β1-integrin Ab 45 min at 37° C., peptide 100 μM, 90 min) | adhesion to collagen I ([1]; crude peptide (65% pure) 100 μM, 90 min) | cellular content of filamentous actin (F-actin) [2] | adhesion to collagen I [3]
SQLAGLSQGQKKL [peptide 171, Wnt-5a aa 55-67; negative control] | lost or less consistent | most likely β1-integrin-dependent | significant effect on adhesion |  | 
NKTSEGMDGCEL (Human) [peptide 175, Wnt-5a aa 311-322] | most effective |  |  | significantly higher cellular content of filamentous actin | significantly increased
ADFRKVGDALKEKYD [peptide 169, Wnt-5a aa 242-256] | increased when tested at higher purity |  |  |  | significantly increased
